Test results reported in patent US8952024B2, “Herbicidal pyrimidone derivatives” (E I du Pont de Nemours and Company, priority 2009, dated 2015).

What was measured:
Type in all cases: in vivo
[1] = system: galium (catchweed bedstraw, Galium aparine); experiment: Test B pre-/postemergence plant response; details: Postemergence
How it was run: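 Visual ratings on a 0–100 scale (100 = complete control) were made versus untreated controls 13–15 days after treatment in a greenhouse. Compounds in surfactant-containing non-phytotoxic solvent were applied preemergence to seeds in loam–sand blend or postemergence to 1- to 4-leaf plants (2–18 cm).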

[2] = system: velvetleaf (Abutilon theophrasti); experiment: Test A pre-/postemergence plant response; details: for Velvetleaf plant response rating: visual injury, 0 to 100 scale (0 no effect, 100 complete control), approx. ten days
How it was run: (§1)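 Greenhouse pots of loam/sand received directed preemergence soil sprays or postemergence sprays (plants 2–10 cm, 1–2 leaf stage), compounds formulated in non-phytotoxic solvent with surfactant. Injury was rated visually versus untreated controls after about ten days on a 0 (no effect) to 100 (complete control) scale.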

[3] = system: corn (Zea mays); experiment: Test A pre-/postemergence plant response; details: for Corn plant response rating: visual injury, 0 to 100 scale (0 no effect, 100 complete control), approx. ten days
How it was run: as §1

[4] = system: large crabgrass (Digitaria sanguinalis); experiment: Test A pre-/postemergence plant response; details: for Crabgrass, Large plant response rating: visual injury, 0 to 100 scale (0 no effect, 100 complete control), approx. ten days
How it was run: as §1

[5] = system: giant foxtail (Setaria faberii); experiment: Test A pre-/postemergence plant response; details: for Foxtail, Giant plant response rating: visual injury, 0 to 100 scale (0 no effect, 100 complete control), approx. ten days
How it was run: as §1

[6] = system: wheat (Triticum aestivum); experiment: Test A pre-/postemergence plant response; details: for Wheat plant response rating: visual injury, 0 to 100 scale (0 no effect, 100 complete control), approx. ten days
How it was run: as §1

[7] = system: barnyardgrass (Echinochloa crus-galli); experiment: Test A pre-/postemergence plant response; details: for Barnyardgrass plant response rating: visual injury, 0 to 100 scale (0 no effect, 100 complete control), approx. ten days
How it was run: as §1

[8] = system: windgrass (Apera spica-venti); experiment: Test B postemergence plant response; details: Postemergence
How it was run: (§2)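 Visual ratings from 0 (no effect) to 100 (complete control), made against controls 13–15 days after treatment, kept in a greenhouse. Compounds were applied postemergence to potted plants at the 1- to 4-leaf stage (2–18 cm).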

[9] = system: chickweed (Stellaria media); experiment: Test B postemergence plant response; details: Postemergence
How it was run: as §2

[10] = system: canarygrass (Phalaris minor); experiment: Test B postemergence plant response; details: Postemergence
How it was run: as §2

[11] = system: winter barley (Hordeum vulgare); experiment: Test B postemergence plant response; details: for Plant response rating, Barley: Postemergence
How it was run: as §2

[12] = 31 g ai/ha, 0 to 100 scale (0 no effect, 100 complete control)
[13] = 125 g ai/ha, scale 0 to 100 (0 no effect, 100 complete control)
[14] = 250 g ai/ha, scale 0 to 100 (0 no effect, 100 complete control), 13 to 15 days
[15] = Postemergence, 125 g ai/ha, 0 to 100 scale where 0 is no effect and 100 is complete control
[16] = Preemergence, 125 g ai/ha, 0 to 100 scale, 0 = no effect, 100 = complete control
[17] = Preemergence, 500 g ai/ha, 0 to 100 scale, 0 = no effect, 100 = complete control
[18] = 62 g ai/ha, scale 0 to 100 (0 no effect, 100 complete control)
[19] = 125 g ai/ha, scale 0 (no effect) to 100 (complete control), 13 to 15 days

O=C1CCCC(O)=C1C(=O)c1cnc(-c2ccsc2)n(C2CCOCC2)c1=O [Compound 186]
Plant response rating, Galium [1, 12]: 40 | Plant response rating, Galium [1, 13]: 70 | Plant response rating, Galium [1, 14]: 70 | Plant response rating, Velvetleaf [2, 15]: 100 | Velvetleaf plant response rating ([2]; Postemergence, 500 g ai/ha): 100 | Plant response rating, Velvetleaf [2, 16]: 60 | Plant response rating, Velvetleaf [2, 17]: 100 | Plant response rating, Corn [3, 15]: 0 | Corn plant response rating ([3]; Postemergence, 500 g ai/ha): 60 | Plant response rating, Corn [3, 16]: 0 | Plant response rating, Corn [3, 17]: 0 | Plant response rating, Crabgrass, Large [4, 15]: 90 | Crabgrass, Large plant response rating ([4]; Postemergence, 500 g ai/ha): 90 | Plant response rating, Crabgrass, Large [4, 16]: 30 | Plant response rating, Crabgrass, Large [4, 17]: 80 | Plant response rating, Foxtail, Giant [5, 15]: 80 | Foxtail, Giant plant response rating ([5]; Postemergence, 500 g ai/ha): 90 | Plant response rating, Foxtail, Giant [5, 16]: 20 | Plant response rating, Foxtail, Giant [5, 17]: 60 | Plant response rating, Wheat [6, 15]: 0 | Wheat plant response rating ([6]; Postemergence, 500 g ai/ha): 0 | Plant response rating, Wheat [6, 16]: 0 | Plant response rating, Wheat [6, 17]: 0 | Plant response rating, Barnyardgrass [7, 15]: 80 | Barnyardgrass plant response rating ([7]; Postemergence, 500 g ai/ha): 90 | Plant response rating, Barnyardgrass [7, 16]: 0 | Plant response rating, Barnyardgrass [7, 17]: 60 | Plant response rating, Windgrass [8, 12]: 10 | Plant response rating, Windgrass [8, 13]: 50 | Plant response rating, Windgrass [8, 14]: 65 | Plant response rating, Chickweed [9, 12]: 95 | Plant response rating, Chickweed [9, 13]: 100 | Plant response rating, Chickweed [9, 14]: 100 | Plant response rating, Canarygrass [10, 12]: 5 | Plant response rating, Canarygrass [10, 13]: 40 | Plant response rating, Canarygrass [10, 14]: 40 | Barley plant response rating (0 to 100 scale) ([11]; 62 g ai/ha, postemergence, 0 is no effect, 100 is complete control, 13 to 15 days): 5 | Plant response rating, Barley [11, 12]: 0 | Plant response rating, Barley [11, 13]: 5 | Plant response rating, Barley [11, 14]: 5

CCn1c(-c2cccc(F)c2)ncc(C(=O)C2=C(O)C3CCC(C3)C2=O)c1=O (stereo not shown) [Compound 236]
Plant response rating, Velvetleaf [2, 15]: 100 | Velvetleaf plant response rating ([2]; Postemergence, 500 g ai/ha): 100 | Plant response rating, Velvetleaf [2, 16]: 80 | Plant response rating, Velvetleaf [2, 17]: 100 | Plant response rating, Corn [3, 15]: 20 | Corn plant response rating ([3]; Postemergence, 500 g ai/ha): 50 | Plant response rating, Corn [3, 16]: 0 | Plant response rating, Corn [3, 17]: 10 | Plant response rating, Crabgrass, Large [4, 15]: 80 | Crabgrass, Large plant response rating ([4]; Postemergence, 500 g ai/ha): 90 | Plant response rating, Crabgrass, Large [4, 16]: 80 | Plant response rating, Crabgrass, Large [4, 17]: 100 | Plant response rating, Foxtail, Giant [5, 15]: 70 | Foxtail, Giant plant response rating ([5]; Postemergence, 500 g ai/ha): 90 | Plant response rating, Foxtail, Giant [5, 16]: 40 | Plant response rating, Foxtail, Giant [5, 17]: 70 | Plant response rating, Wheat [6, 15]: 0 | Wheat plant response rating ([6]; Postemergence, 500 g ai/ha): 40 | Plant response rating, Wheat [6, 16]: 0 | Plant response rating, Wheat [6, 17]: 30 | Plant response rating, Barnyardgrass [7, 15]: 90 | Barnyardgrass plant response rating ([7]; Postemergence, 500 g ai/ha): 90 | Plant response rating, Barnyardgrass [7, 16]: 50 | Plant response rating, Barnyardgrass [7, 17]: 90 | Plant response rating, Windgrass [8, 12]: 30 | Plant response rating, Windgrass [8, 14]: 85 | Plant response rating, Windgrass [8, 18]: 50 | Plant response rating, Chickweed [9, 12]: 75 | Plant response rating, Chickweed [9, 13]: 100 | Plant response rating, Chickweed [9, 14]: 100 | Plant response rating, Chickweed [9, 18]: 100 | Plant response rating, Canarygrass [10, 12]: 0 | Plant response rating, Canarygrass [10, 13]: 0 | Plant response rating, Canarygrass [10, 14]: 10 | Plant response rating, Canarygrass [10, 18]: 0 | Plant response rating, Barley [11, 12]: 0 | Plant response rating, Barley [11, 13]: 0 | Plant response rating, Barley [11, 14]: 0 | Plant response rating, Barley [11, 18]: 0

CCCCn1c(-c2ccccc2)ncc(C(=O)C2=C(O)C3CCC(C3)C2=O)c1=O (stereo not shown) [Compound 240]
Plant response rating, Velvetleaf [2, 15]: 100 | Velvetleaf plant response rating ([2]; Postemergence, 500 g ai/ha): 100 | Plant response rating, Velvetleaf [2, 16]: 60 | Plant response rating, Velvetleaf [2, 17]: 80 | Plant response rating, Corn [3, 15]: 40 | Corn plant response rating ([3]; Postemergence, 500 g ai/ha): 80 | Plant response rating, Corn [3, 16]: 0 | Plant response rating, Corn [3, 17]: 40 | Plant response rating, Crabgrass, Large [4, 15]: 90 | Crabgrass, Large plant response rating ([4]; Postemergence, 500 g ai/ha): 100 | Plant response rating, Crabgrass, Large [4, 16]: 50 | Plant response rating, Crabgrass, Large [4, 17]: 100 | Plant response rating, Foxtail, Giant [5, 15]: 90 | Foxtail, Giant plant response rating ([5]; Postemergence, 500 g ai/ha): 100 | Plant response rating, Foxtail, Giant [5, 16]: 40 | Plant response rating, Foxtail, Giant [5, 17]: 80 | Plant response rating, Wheat [6, 15]: 20 | Wheat plant response rating ([6]; Postemergence, 500 g ai/ha): 40 | Plant response rating, Wheat [6, 16]: 0 | Plant response rating, Wheat [6, 17]: 40 | Plant response rating, Barnyardgrass [7, 15]: 100 | Barnyardgrass plant response rating ([7]; Postemergence, 500 g ai/ha): 100 | Plant response rating, Barnyardgrass [7, 16]: 40 | Plant response rating, Windgrass [8, 12]: 60 | Plant response rating, Windgrass [8, 19]: 98 | Plant response rating, Windgrass [8, 14]: 98 | Plant response rating, Windgrass [8, 18]: 80 | Plant response rating, Chickweed [9, 12]: 90 | Plant response rating, Chickweed [9, 19]: 100 | Plant response rating, Chickweed [9, 14]: 100 | Plant response rating, Chickweed [9, 18]: 98 | Plant response rating, Canarygrass [10, 12]: 5 | Plant response rating, Canarygrass [10, 19]: 30 | Plant response rating, Canarygrass [10, 14]: 40 | Plant response rating, Canarygrass [10, 18]: 5 | Plant response rating, Barley [11, 12]: 5 | Plant response rating, Barley [11, 19]: 15 | Plant response rating, Barley [11, 14]: 15 | Plant response rating, Barley [11, 18]: 5
